Experimental data published in ChEMBL document CHEMBL1201862, “PubChem BioAssay data set” (2004).
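In this assay, cells in 96-well plates receive the compound at five concentrations for 48 hours. Endpoints are linearly interpolated between the surrounding concentrations. Here, GI50 denotes the concentration required for 50% inhibition of growth.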 Calls of active or inactive are those of the source. Cut-off read from the data, not from the text of the source: active = GI50 up to about 1.1 µM and inactive = higher.

Legend:
Experiment in all cases: NCI-60 cell line screen, 48 h
[1] = tested on: MDA-N
[2] = tested on: SF-295
[3] = tested on: SK-MEL-2
[4] = tested on: OVCAR-4
[5] = tested on: M14
[6] = tested on: MCF7
[7] = tested on: T47D
[8] = tested on: HT-29
[9] = tested on: U-251
[10] = tested on: PC-3
[11] = tested on: DU-145
[12] = tested on: HCT-116
[13] = tested on: ACHN
[14] = tested on: EKVX
[15] = tested on: NCI-H23
[16] = tested on: A549
[17] = tested on: A498
[18] = tested on: CAKI-1
[19] = tested on: UO-31
[20] = tested on: NCI-H226

Measured: GI50

O=c1oc2ccccc2cc1-c1ccc([N+](=O)[O-])cc1
inactive: [1] > 100 µM | [2] 83.6 µM | [3] > 100 µM | [4] > 100 µM | [5] > 100 µM | [6] > 100 µM | [7] > 100 µM | [8] > 100 µM | [9] 9.53 µM | [10] > 100 µM | [11] > 100 µM | [12] 36.7 µM | [13] > 100 µM | [14] > 100 µM | [15] > 100 µM | [16] 85.9 µM | [17] 85.5 µM | [18] > 100 µM | [19] > 100 µM | [20] > 100 µM

Cc1ccc2c(ccc3[nH]cc(CNc4ccc(NS(C)(=O)=O)cc4)c32)n1
inactive: [1] 17.5 µM | [2] 21.8 µM | [3] 18.6 µM | [4] 21.7 µM | [5] 17.6 µM | [6] 19.3 µM | [7] 12.3 µM | [8] 28.3 µM | [9] 25.9 µM | [10] 25 µM | [11] 18.7 µM | [12] 18.7 µM | [13] 33.7 µM | [14] 35.4 µM | [15] 18.7 µM | [16] 23.1 µM | [17] 15.6 µM | [18] 14 µM | [19] 37.7 µM | [20] 20.3 µM

CC(=O)c1ccccc1NS(=O)(=O)c1ccc2nc(C)n(NS(=O)(=O)c3ccccc3C(C)=O)c(=O)c2c1
inactive: [1] > 100 µM | [2] > 100 µM | [3] > 100 µM | [4] > 100 µM | [5] > 100 µM | [6] > 100 µM | [7] > 100 µM | [8] > 100 µM | [9] > 100 µM | [10] > 100 µM | [11] > 100 µM | [12] > 100 µM | [13] > 100 µM | [14] > 100 µM | [15] > 100 µM | [17] > 100 µM | [18] > 100 µM | [19] 37.3 µM | [20] > 100 µM

CCSc1cc(C(=O)OC)c2n(c1=O)CCCC2
inactive: [1] > 100 µM | [2] > 100 µM | [3] > 100 µM | [4] > 100 µM | [5] > 100 µM | [6] > 100 µM | [7] > 100 µM | [8] > 100 µM | [9] > 100 µM | [10] > 100 µM | [11] > 100 µM | [12] > 100 µM | [13] > 100 µM | [14] > 100 µM | [15] > 100 µM | [16] > 100 µM | [17] > 100 µM | [18] > 100 µM | [19] > 100 µM | [20] > 100 µM

N#CC1(C#N)NC(c2ccccc2)C(C#N)(C#N)NC1c1ccccc1 (stereo unspecified)
inactive: [1] > 100 µM | [2] > 100 µM | [3] > 100 µM | [4] > 100 µM | [5] > 100 µM | [6] > 100 µM | [7] > 100 µM | [8] > 100 µM | [9] > 100 µM | [10] > 100 µM | [11] > 100 µM | [12] > 100 µM | [13] > 100 µM | [14] > 100 µM | [15] > 100 µM | [16] > 100 µM | [17] > 100 µM | [18] 6.59 µM | [19] > 100 µM | [20] > 100 µM

N#CC(/N=N/c1ccc(Cl)cc1)c1nc2ccccc2o1 (stereo unspecified)
inactive: [1] > 100 µM | [2] 27.9 µM | [3] 28.7 µM | [4] 30.2 µM | [5] > 100 µM | [6] > 100 µM | [7] 7.71 µM | [8] > 100 µM | [9] 29.6 µM | [10] 77.6 µM | [11] > 100 µM | [12] 56.4 µM | [13] 32.9 µM | [14] 34.5 µM | [15] 25.6 µM | [16] > 100 µM | [17] 49 µM | [18] > 100 µM | [19] > 100 µM | [20] > 100 µM

Nc1ccccc1C#CC(=O)c1cccc(C(F)(F)F)c1
inactive: [1] 3.1 µM | [2] 15.7 µM | [3] 1.18 µM | [4] 2.22 µM | [5] 2.22 µM | [6] 2.89 µM | [7] 4.03 µM | [8] 4.16 µM | [9] 1.95 µM | [10] 3.41 µM | [11] 3.24 µM | [12] 2.66 µM | [14] 16.3 µM | [15] 1.97 µM | [16] 16.8 µM | [17] 18.5 µM | [18] 3.21 µM | [19] 1.29 µM | [20] 3.58 µM

O=C1C=C(C2=CC(=O)C(=O)c3ccccc32)c2ccccc2C1=O
inactive: [1] 2.02 µM | [2] 21.2 µM | [3] 19.5 µM | [4] 47.6 µM | [5] 6.46 µM | [6] 9.98 µM | [7] 19.5 µM | [8] 28.6 µM | [9] 5.47 µM | [10] 15.2 µM | [11] 14.9 µM | [12] 6.65 µM | [13] 21 µM | [14] 34.8 µM | [15] 5.07 µM | [16] 35.6 µM | [17] 46.6 µM | [18] 22 µM | [19] 6.14 µM | [20] 38.5 µM

Cc1cc(C)c2c(c1)C(=O)C1(C2)Cc2c(ccc(C)c2C)C1=O (stereo unspecified)
inactive: [1] > 100 µM | [2] > 100 µM | [3] > 100 µM | [4] > 100 µM | [5] > 100 µM | [6] > 100 µM | [7] > 100 µM | [9] > 100 µM | [10] > 100 µM | [11] > 100 µM | [12] > 100 µM | [13] > 100 µM | [14] > 100 µM | [16] > 100 µM | [17] > 100 µM | [18] > 100 µM | [19] > 100 µM | [20] > 100 µM

O=C(O)C(F)(F)C(F)(F)C(F)(F)C(F)(F)C(=O)O
inactive: [1] > 100 µM | [2] > 100 µM | [3] > 100 µM | [4] > 100 µM | [5] > 100 µM | [6] > 100 µM | [7] > 100 µM | [8] > 100 µM | [9] > 100 µM | [10] > 100 µM | [11] > 100 µM | [12] > 100 µM | [13] > 100 µM | [14] > 100 µM | [15] > 100 µM | [16] > 100 µM | [17] > 100 µM | [18] > 100 µM | [19] > 100 µM | [20] > 100 µM
